This passage reports MIC results from patent US11208387B2, “Macrocyclic broad spectrum antibiotics” (Genentech, Inc., priority 2019, dated 2021).

In brackets after ≈: the same amount, converted by molar mass. Where two headings read alike, the source gives them in different places.

Test in all cases: Serum MIC, broth micro-dilution
Holding throughout (type): cell-based
Background: Broth dilution looks for growth in wells or tubes with falling amounts of substance.

The test system of assay [1] is Acinetobacter baumannii ATCC 17978. The following applies: Acinetobacter baumannii. On the procedure:
(§1) In vitro antimicrobial activity of each compound was determined by measuring minimal inhibitor concentrations (MICs) using the broth micro-dilution technique as approved by the Clinical and Laboratory Standards Institute (CLSI) (Methods for Dilution Antimicrobial Susceptibility Tests for Bacteria that Grow Aerobically; Approved Standard—Eighth Edition. CLSI document M07-A8. Wayne, Pa.: Clinical and Laboratory Standards; 2009). Antibacterial activity was measure against Escherichia coli strain ATCC 25922 (E. coli), Klebsiella pneumoniae ATCC 700603 (K. pneumoniae), Acinetobacter baumannii ATCC 17978 (A. baumannii), and Pseudomonas aeruginosa PA01 (P. aeruginosa), each of which is representative of a clinically relevant Gram-negative species. Cells were inoculated onto plates of Mueller Hinton Agar and grown at 37° C. for 16-18 hours. Inocula suspensions were prepared by scraping cells into 1 mL of testing media (Mueller Hinton II cation adjusted Broth) and diluting to a final OD 600 nm of 0.01.
(§2) Test compounds were prepared in DMSO at a concentration of […]. The compounds were tested under several different dilution formats. In protocol 1, the compound stocks were diluted into testing media at a concentration of 64 μg/ml and serial 2-fold dilutions were made in the same media, in 96-well U bottom microtiter dishes, for a total of 10 compound concentrations. In protocol 2, the compound stocks were diluted into testing media at a concentration of 4 μg/mL and serial 2-fold dilutions were made in the same media, in 96-well U bottom microtiter dishes, for a total of 10 compound concentrations. In protocol 3, compound stocks were diluted into testing media at a concentration of 0.5 μg/mL, with serial 2-fold dilutions conducted as described above. In protocol 4, compound stocks were diluted into testing media at a concentration of 0.13 μg/mL, with serial 2-fold dilutions conducted as described above. Inocula suspensions were added to the 2-fold serial dilutions of test compounds to a final density of OD 600 nm of 0.0005 and incubated at 35° C. for 22 hours. […] To assess antimicrobial activity in the presence of plasma proteins, MICs were also determined in growth media supplemented with 50% serum. Bacterial inocula and test compound dilution plates were prepared using the same protocol as described above for the standard MICs assay, with the exception that a mixture of 50% v/v Mueller Hinton II cation adjusted Broth and 50% v/v mouse sterile filtered serum (Equitech-Bio) was used in place of 100% Mueller Hinton II cation adjusted Broth. The results are listed in Table 3 (MIC, IC50 values micromolar).

Assay [2] deals with Pseudomonas aeruginosa PA01. The following applies: Pseudomonas aeruginosa, read-out: P. aeruginosa 01 Serum MIC. As to the method: as §1, §2
In assay [3] the test system is Escherichia coli strain ATCC 25922. The following applies: Escherichia coli, read-out: E. coli 25922 Serum MIC. As to the method: as §1, §2
Assay [4] deals with Klebsiella pneumoniae ATCC 700603. The note with it: Klebsiella pneumoniae, read-out: K pneumoniae 700603 Serum MIC. As to the method:
as §1, §2

[5] abbreviates: ATCC17978, 50% v/v mouse serum in Mueller Hinton II cation adjusted Broth, 35° C., 22 hours, Table 4, read-out: A. baumanii 17978 Serum MIC.
Setting [6] is: ATCC17978, 50% v/v mouse serum in Mueller Hinton II cation adjusted Broth, 35° C., 22 hours, Table 5, read-out: Acinetobacter baumanii 17978 Serum MIC.
[7] abbreviates: PA01, 50% v/v mouse serum in Mueller Hinton II cation adjusted Broth, 35° C., 22 hours, Table 4.
The mark [8] stands for this setting: ATCC25922, 50% v/v mouse serum in Mueller Hinton II cation adjusted Broth, 35° C., 22 hours, Table 4.
[9] abbreviates: ATCC700603, 50% v/v mouse serum in Mueller Hinton II cation adjusted Broth, 35° C., 22 hours, Table 4.
The mark [10] stands for this setting: ATCC17978, 22 h, read-out: A. baumanii 17978 Serum MIC.
Where [11] appears, read: ATCC17978, 22 h, read-out: Acinetobacter baumanii 17978 Serum MIC.

Turning to `CCC(C)(C)c1ccc(-c2nc(C)c(C(=O)N[C@@H](CNS(N)(=O)=O)C(=O)N(C)[C@@H]3C(=O)N[C@@H](C)C(=O)N[C@H](C(=O)O)Cc4ccc(OC[C@H](O)CN)c(c4)-c4cc3cc(OC[C@H](O)CN)c4O)c(N)n2)c(F)c1` [Example 33, (8S,11S,14S)-14-[[(2S)-2-[[4-amino-2-[4-(1,1-dimethyl-propyl)-2-fluoro-phenyl]-6-methyl-pyrimidine-5-carbonyl]amino]-3-(sulfamoylamino)-propanoyl]-methyl-amino]-3,17-bis[(2R)-3-amino-2-hydroxy-propoxy]-18-hydroxy-11-methyl-10,13-dioxo-9,12-diazatricyclo-[13.3.1.12,6]icosa-1(18),2(20),3,5,15(19), 16-hexaene-8-carboxylic acid], the minimum inhibitory concentration (MIC) in assay [1] (setting [5]) amounted to 48 µM (≈ 49.9 µg/mL); in assay [1] (setting [6]) it was 48 µM (≈ 49.9 µg/mL); in assay [2] (setting [7]) it was 8 µM (≈ 8.32 µg/mL); in assay [3] (setting [8]), 1 µM (≈ 1.04 µg/mL); in assay [4] (setting [9]) it was 1 µM (≈ 1.04 µg/mL).
With `C[C@@H]1NC(=O)[C@@H](N(C)C(=O)[C@H](CNS(N)(=O)=O)NC(=O)c2c(Cl)cc(-c3ccc(C(C)(C)C)cc3)nc2N)c2cc(OC[C@H](O)CN)c(O)c(c2)-c2cc(ccc2OC[C@H](O)CN)C[C@@H](C(=O)O)NC1=O` [Example 40, (8S,11S,14S)-14-[[(2S)-2-[[2-amino-6-(4-tert-butylphenyl)-4-chloro-pyridine-3-carbonyl]amino]-3-(sulfamoylamino)-propanoyl]-methyl-amino]-3,17-bis[(2R)-3-amino-2-hydroxy-propoxy]-18-hydroxy-11-methyl-10,13-dioxo-9,12-diazatri-cyclo[13.3.1.12,6]icosa-1(18),2(20),3,5,15(19), 16-hexaene-8-carboxylic acid], the minimal inhibitory concentration (MIC) stood at 16 µM (≈ 16.4 µg/mL) in assay [1] (setting [5]); 16 µM (≈ 16.4 µg/mL) in assay [1] (setting [6]); 8 µM (≈ 8.22 µg/mL) in assay [2] (setting [7]); 0.75 µM (≈ 0.771 µg/mL) in assay [3] (setting [8]); 0.5 µM (≈ 0.514 µg/mL) in assay [4] (setting [9]).
Take `Cc1cc(C(C)(C)C)ccc1-c1nc(C)c(C(=O)N[C@@H](CNS(N)(=O)=O)C(=O)N(C)[C@@H]2C(=O)N[C@@H](C)C(=O)N[C@H](C(=O)O)Cc3ccc(OC[C@H](O)CN)c(c3)-c3cc2cc(OC[C@H](O)CN)c3O)c(N)n1` [Example 59, (8S,11S,14S)-14-[[(2S)-2-[[4-amino-2-(4-tert-butyl-2-methyl-phenyl)-6-methyl-pyrimidine-5-carbonyl]amino]-3-(sulfamoylamino)-propanoyl]-methyl-amino]-3,17-bis[(2R)-3-amino-2-hydroxy-propoxy]-18-hydroxy-11-methyl-10,13-dioxo-9,12-diazatricyclo-[13.3.1.12,6]icosa-1(18),2(20),3,5,15(19), 16-hexaene-8-carboxylic acid]: the MIC in assay [1] (setting [5]) was 16 µM (≈ 16.4 µg/mL); in assay [1] (setting [6]) it was 16 µM (≈ 16.4 µg/mL); in assay [2] (setting [7]) it was 4 µM (≈ 4.09 µg/mL); in assay [3] (setting [8]) it was 1 µM (≈ 1.02 µg/mL); in assay [4] (setting [9]), 1 µM (≈ 1.02 µg/mL).
Consider `Cc1nc(-c2ccc(C(C)(C)C)cc2)ncc1C(=O)N[C@@H](CN)C(=O)N(C)[C@@H]1C(=O)N[C@@H](C)C(=O)N[C@H](C(=O)O)Cc2ccc(OC[C@H](O)CN)c(c2)-c2cc1cc(OC[C@H](O)CN)c2O` [Example 31, (8S,11S,14S)-18-hydroxy-11-methyl-14-[methyl-[(2S)-3-amino-2-[[2-(4-tert-butylphenyl)-4-methyl-pyrimidine-5-carbonyl]amino]-propanoyl]amino]-10,13-dioxo-3,17-bis[(2R)-3-amino-2-hydroxy-propoxy]-9,12-diazatricyclo-[13.3.1.12,6]icosa-1(18),2(20),3,5,15(19), 16-hexaene-8-carboxylic acid], for which the minimum inhibitory concentration (MIC) in assay [1] (setting [5]) stood at 32 µM (≈ 29.2 µg/mL); in assay [1] (setting [6]), 32 µM (≈ 29.2 µg/mL); in assay [2] (setting [7]) it was 48 µM (≈ 43.9 µg/mL); in assay [3] (setting [8]) it was 1 µM (≈ 0.914 µg/mL); in assay [4] (setting [9]), 0.75 µM (≈ 0.686 µg/mL).
For `C[C@@H]1NC(=O)[C@@H](N(C)C(=O)[C@H](CNS(N)(=O)=O)NC(=O)c2ncc(-c3ccc(C(C)(C)C)cc3)nc2N)c2cc(OC[C@H](O)CN)c(O)c(c2)-c2cc(ccc2OC[C@H](O)CN)C[C@@H](C(=O)O)NC1=O` [Example 11, (8S,11S,14S)-18-hydroxy-11-methyl-14-[methyl-[(2S)-2-[[3-amino-5-(4-tert-butylphenyl)pyrazine-2-carbonyl]amino]-3-(sulfamoylamino)-propanoyl]amino]-10,13-dioxo-3,17-bis[(2R)-3-amino-2-hydroxy-propoxy]-9,12-diazatricyclo-[13.3.1.12,6]icosa-1(18),2(20),3,5,15(19), 16-hexaene-8-carboxylic acid], the minimum inhibitory concentration (MIC) in assay [1] (setting [10]) was determined as 16 µM (≈ 15.9 µg/mL); in assay [1] (setting [11]) it was 16 µM (≈ 15.9 µg/mL); in assay [2] (PA01, 22 h) it was 64 µM (≈ 63.6 µg/mL); in assay [3] (ATCC25922, 22 h), 4 µM (≈ 3.98 µg/mL); in assay [4] (ATCC700603, 22 h), 4 µM (≈ 3.98 µg/mL).
With `Cc1nc(-c2ccc(OC(C)C)cc2)nc(C)c1C(=O)N[C@@H](CNS(N)(=O)=O)C(=O)N(C)[C@@H]1C(=O)N[C@@H](C)C(=O)N[C@H](C(=O)O)Cc2ccc(OC[C@H](O)CN)c(c2)-c2cc1cc(OC[C@H](O)CN)c2O` [Example 13, (8S,11S,14S)-18-hydroxy-11-methyl-14-[methyl-[(2S)-2-[[2-(4-isopropoxy-phenyl)-4,6-dimethyl-pyrimidine-5-carbonyl]amino]-3-(sulfamoylamino)-propanoyl]amino]-10,13-dioxo-3,17-bis[(2R)-3-amino-2-hydroxy-propoxy]-9,12-diazatricyclo-[13.3.1.12,6]icosa-1(18),2(20),3,5,15(19), 16-hexaene-8-carboxylic acid], the MIC was 32 µM (≈ 32.3 µg/mL) in assay [1] (setting [10]); 32 µM (≈ 32.3 µg/mL) in assay [1] (setting [11]); 24 µM (≈ 24.2 µg/mL) in assay [2] (PA01, 22 h); 1.5 µM (≈ 1.51 µg/mL) in assay [3] (ATCC25922, 22 h); 1.5 µM (≈ 1.51 µg/mL) in assay [4] (ATCC700603, 22 h).
As for `C[C@@H]1NC(=O)[C@@H](N(C)C(=O)[C@H](CCN)NC(=O)c2cnn(-c3ccc(OCCC(C)(C)C)cc3)c(=O)c2)c2cc(OC[C@H](O)CN)c(O)c(c2)-c2cc(ccc2OC[C@H](O)CN)C[C@@H](C(=O)O)NC1=O` [Example 22, (8S,11S,14S)-18-hydroxy-11-methyl-14-[methyl-[(2S)-4-amino-2-[[1-[4-(3,3-dimethylbutoxy)-phenyl]-6-oxo-pyridazine-4-carbonyl]amino]-butanoyl]amino]-10,13-dioxo-3,17-bis[(2R)-3-amino-2-hydroxy-propoxy]-9,12-diazatricyclo-[13.3.1.12,6]icosa-1(18),2(20),3,5,15(19), 16-hexaene-8-carboxylic acid], the minimum inhibitory concentration (MIC) in assay [1] (setting [5]) was 32 µM (≈ 31.2 µg/mL); in assay [1] (setting [6]), 32 µM (≈ 31.2 µg/mL); in assay [2] (setting [7]) it was 32 µM (≈ 31.2 µg/mL); in assay [3] (setting [8]) it was 1 µM (≈ 0.974 µg/mL); in assay [4] (setting [9]) it was 0.5 µM (≈ 0.487 µg/mL).
For `CNc1nc(-c2ccc(C(C)(C)C)cc2)nc(C)c1C(=O)N[C@@H](CNS(N)(=O)=O)C(=O)N(C)[C@@H]1C(=O)N[C@@H](C)C(=O)N[C@H](C(=O)O)Cc2ccc(OC[C@H](O)CN)c(c2)-c2cc1cc(OC[C@H](O)CN)c2O` [Example 56, (8S,11S,14S)-3,17-bis[(2R)-3-amino-2-hydroxy-propoxy]-14-[[(2S)-2-[[2-(4-tert-butylphenyl)-4-methyl-6-(methyl-amino)pyrimidine-5-carbonyl]amino]-3-(sulfamoylamino)-propanoyl]-methyl-amino]-18-hydroxy-11-methyl-10,13-dioxo-9,12-diazatri-cyclo[13.3.1.12,6]icosa-1(18),2(20),3,5,15(19), 16-hexaene-8-carboxylic acid], the minimum inhibitory concentration (MIC) came out at 6 µM (≈ 6.13 µg/mL) in assay [1] (setting [5]); 6 µM (≈ 6.13 µg/mL) in assay [1] (setting [6]); 3 µM (≈ 3.07 µg/mL) in assay [2] (setting [7]); 0.25 µM (≈ 0.256 µg/mL) in assay [3] (setting [8]); 0.5 µM (≈ 0.511 µg/mL) in assay [4] (setting [9]).

As a reminder, the MIC is the least concentration at which growth counts as inhibited.
